Assays:
[1] = tested on: human retinal endothelial cells (HRECs); experiment: Identification of receptor of midazolam through ROS concentration analysis; format: cell-based; settings: 0-50 μM flumazenil or 0-30 μM PK11195 1 hr, then 20 μM midazolam 30 min, then 10 ng/ml VEGF (FIG. 10B)
Method: With reference to FIG. 10A, the HRECs of Test Example 1 were subjected to the respective treatments below, cultured for 10 min, treated with 10 μM H2DCFDA, stained for 10 min in a phenol-red-free low-serum medium, and measured using confocal microscopy to thus determine the fluorescence intensity of single cells.
(§1) As will be described below, flumazenil was used as a GABAA receptor antagonist and PK11195 was used as a TSOP receptor antagonist.
With reference to FIG. 10B, the HRECs of Test Example 1 were treated with 0 μM, 0.01 μM, 0.1 μM, 1 μM, 10 μM, 20 μM, and 50 μM flumazenil and 0 μM, 0.01 μM, 0.1 μM, 1 μM, 3 μM, 10 μM, and 30 μM PK11195, cultured for 1 hr, treated with 20 μM midazolam, cultured for 30 min, treated with 10 ng/ml VEGF, incubated for 10 min, treated with 10 μM H2DCFDA, stained for 10 min in a phenol-red-free low-serum medium, and then measured using confocal microscopy to thus determine the fluorescence intensity of single cells.

[2] = tested on: retinal vessels of diabetic mice; experiment: Fluorescein angiography for mouse model (retinal vascular leakage); format: in vivo, C57BL/6 mice; settings: intravitreal 3 μL of 0.4 mM flumazenil in two administrations and 2 μL of 2 mM midazolam, group excluded from those without significant increase
TGase [3] = experiment: Identification of receptor of midazolam through TGase activity analysis; format: cell-based, human; settings: HRECs, 0-50 μM flumazenil or 0-30 μM PK11195 1 hr, then 20 μM midazolam 30 min, then 10 ng/ml VEGF (FIG. 11B)
Method: With reference to FIG. 11A, the HRECs of Test Example 1 were subjected to the respective treatments below, cultured for 2 hr, treated with 1 mM 5-(biotinamido)pentylamine, incubated for 1 hr, fixed with 3.7% formaldehyde, treated with 0.2% triton X-100, treated with a blocking solution containing 138 mM NaCl, 0.1% Tween 20 and 2% BSA dissolved in a 20 mM Tris (pH 7.6) buffer, incubated for 30 min, incubated with FITC-conjugated streptavidin (1:200, v/v) for 1 hr, and then measured using confocal microscopy to thus determine the fluorescence intensity of single cells.
as §1
With reference to FIG. 11B, the HRECs of Test Example 1 were treated with 0 μM, 0.01 μM, 0.1 μM, 1 μM, 10 μM, 20 μM, and 50 μM flumazenil and 0 μM, 0.01 μM, 0.1 μM, 1 μM, 3 μM, 10 μM, and 30 μM PK11195, cultured for 1 hr, treated with 20 μM midazolam, cultured for 30 min, treated with 10 ng/ml VEGF, incubated for 10 min, treated with 1 mM 5-(biotinamido)pentylamine, incubated for 1 hr, fixed with 3.7% formaldehyde, treated with 0.2% triton X-100, treated with a blocking solution containing 138 mM NaCl, 0.1% Tween 20 and 2% BSA dissolved in a 20 mM Tris (pH 7.6) buffer, incubated for 30 min, incubated with FITC-conjugated streptavidin (1:200, v/v) for 1 hr, and then measured using confocal microscopy to thus determine the fluorescence intensity of single cells.

TGase [4] = experiment: Analysis of TGase activity in retinas of diabetic mouse model; format: in vivo, C57BL/6 mice; settings: intravitreal 3 μL of 0.4 mM flumazenil in two administrations and 2 μL of 2 mM midazolam, group excluded from those without significant increase
Method: 6-week-old male C57BL/6 mice (DBL, EumSeong, Korea) were administered with streptozotocin (Sigma-Aldrich) dissolved in a 100 mM citrate buffer (pH 4.5) through intraperitoneal injection in an amount of 150 mg each per kg of mouse weight to give diabetic mouse models. In the diabetic mouse models, the blood glucose level was 19 mM or more when not fasting, and polyuria and diabetes, considered signs of diabetes, were observed. […]
48 μL of 100 mM 5-(biotinamido)pentylamine was injected into the left ventricle of each of normal mice (Normal), midazolam-administered normal mice (Midazolam), diabetic mice (Diabetic), midazolam-administered diabetic mice (Diabetic+Midazolam), flumazenil- and midazolam-administered diabetic mice (Diabetic+flumazenil+Midazolam), cystamine-administered diabetic mice (Diabetic+cystamine) and MDC-administered diabetic mice (Diabetic+MDC) and circulated for 10 min, after which cervical dislocation was performed, and the eyeballs were extracted, fixed with 4% paraformaldehyde for 45 min, incised and subjected to permeation treatment for 30 min. The obtained retinal samples were incubated with a blocking solution for 30 min, treated with FITC-conjugated streptavidin (1:200, v/v), stained for 1 hr, and measured using confocal microscopy. […]

CCOC(=O)c1ncn2c1CN(C)C(=O)c1cc(F)ccc1-2 [flumazenil]
ROS concentration in midazolam- and VEGF-treated cells after receptor antagonist [1]: an increase in ROS concentration with an increase in flumazenil concentration | retinal vascular leakage compared to normal mice, flumazenil given with midazolam [2]: excluding the diabetic mice (Diabetic) and the flumazenil- and midazolam-administered diabetic mice | TGase activity in midazolam- and VEGF-treated cells after receptor antagonist (TGase [3]): an increase in TGase activity with an increase in flumazenil concentration | TGase activity in retina compared to normal mice, flumazenil given with midazolam (TGase [4]): excluding the diabetic mice (Diabetic) and the flumazenil- and midazolam-administered diabetic mice

From patent US11020405B2, “Method for prevention or treatment of diabetic complications” (KANGWON NATIONAL UNIVERSITY UNIVERSITY-INDUSTRY COOPERATION …, priority 2017, dated 2021)
